Data as given in patent publication US6528618B1, “Anti-inflammatory peptides derived from C-reactive protein” (Yeda Research and Development Co. Ltd., priority 1997, dated 2003).
Entries after “also recorded” stand apart in the source; their conditions may differ. Where a SMILES comes first, the peptide text is derived from it.

B1: peptide 26 (peptide)
peptide: EILIFWSVDI
notes: 10-mer analog of peptide 14 (CRP62-71) with Lys69 replaced by Val; also called pep26
B2: peptide 17 (CRP55-83) (peptide)
peptide: ATKRQDNEILIFWSKDIGYSFTVGGSEIL
notes: Synthetic 29-mer
B3: peptide 19 (peptide)
peptide: EILIFWPKDIGYSFT
notes: Analog of peptide 6 (CRP62-76) with Ser68 replaced by Pro
B4: peptide 23 (peptide)
peptide: EILIFWSKEIGYSFT
notes: Analog of peptide 6 (CRP62-76) with Asp70 replaced by Glu; also called pep23
B5: peptide 24 (reverse sequence of peptide 6) (peptide)
peptide: TFSYGIDKSWFILIE

Columns and labels:
[1] = molecular target: T1, human leukocyte cathepsin G (hCG) (Homo sapiens, UniProt P08311); test: In vitro inhibition of hCG (cleavage of Suc-AAPF-NA); assay type: biochemical; details: for Ki: hCG Ki [μM], Table 2, substrate Suc-AAPF-NA 600 μM, pH 7.4
T1 construct: Neutrophils (1.4 billion) were isolated from whole blood obtained from a single healthy laboratory donor; from tissue; host or cells: neutrophils from whole blood of a single healthy donor
T1 sequence (P08311 21-243 limits assumed): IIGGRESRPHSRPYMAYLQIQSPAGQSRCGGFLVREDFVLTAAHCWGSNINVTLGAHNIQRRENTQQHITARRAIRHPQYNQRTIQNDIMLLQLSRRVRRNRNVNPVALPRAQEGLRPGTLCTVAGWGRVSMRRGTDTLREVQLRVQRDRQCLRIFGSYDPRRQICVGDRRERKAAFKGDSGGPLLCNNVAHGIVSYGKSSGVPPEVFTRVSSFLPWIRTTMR
Procedure: (§1) The enzymatic activity was assayed with MeOSuc-AAPV-NA for hLE determination and Suc-AAPF-NA for hCG determination (both in 100 mM Hepes buffer, pH 7.4, containing 0.05% of the […] detergent Brij-35). The activities of the individual enzymatic fractions were 100% free from cross-contamination. […] The fractions containing hLE and hCG were dialyzed each against 0.1% pyridinium acetate, pH 5.3, divided into 20 aliquots, lyophilized, and stored at −20 ° C. until use.
(§2) vi) Inhibition experiments with hCG: Similar conditions to hLE inhibition experiments were used except the substrate: 80 μL of 1.80 mM Suc-AAPF-NA. The enzyme was dissolved in 800 μL buffer, and the reaction was monitored every 6 min for 1 hour. The final volume was 240 μL containing: 5% DMSO, 1-100 μM peptide, 600 μM substrate, and 1.2 μg enzyme (about 40 picomol).
For hCG, V is determined by fitting a quadratic equation to the total kinetic data (60 min), using the least squares method and calculating V at t=0.
The hCG inhibitory capability of CRP-derived peptides was evaluated by inhibiting the enzymatic cleavage of Suc-AAPF-NA as described in Materials and Methods (section vi).

[2] = molecular target: T2, human leukocyte elastase (hLE) (Homo sapiens, UniProt P08246); test: In vitro inhibition of hLE (cleavage of MeOSuc-AAPV-NA); assay type: biochemical; details: for Ki: hLE Ki [μM], Table 2, substrate MeOSuc-AAPV-NA 200 μM, pH 7.4, 37 C
T2 construct: Neutrophils (1.4 billion) were isolated from whole blood obtained from a single healthy laboratory donor; from tissue; host or cells: neutrophils from whole blood of a single healthy donor
T2 sequence (P08246 30-247 limits assumed): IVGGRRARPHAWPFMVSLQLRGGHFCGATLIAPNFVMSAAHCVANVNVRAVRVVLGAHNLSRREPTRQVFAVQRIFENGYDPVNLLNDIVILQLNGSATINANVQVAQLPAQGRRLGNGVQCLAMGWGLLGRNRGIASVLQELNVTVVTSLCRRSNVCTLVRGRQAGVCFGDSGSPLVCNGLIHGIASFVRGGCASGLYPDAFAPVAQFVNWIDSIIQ
Procedure: as §1
(v) Inhibition experiments with hLE: Peptides were dissolved in 100 mM Hepes buffer pH 7.4 containing 0.1% Brij-35 with 10%. DMSO to yield 300 μM solutions, which were used to make further dilutions with the same buffer, and 80 μL aliquots were added in duplicates to 96-well plates. The substrate, 600 μM MeOSuc-AAPV-NA in the same buffer with 5% DMSO, was added to each well in addition to the blank wells, and the plate was placed in the plate reader equilibrated to 37 C (Dynateck MR-6000). Lyophilized aliquots of hLE were dissolved in 1600 μL of 100 mM Hepes buffer without DMSO, and 80 μL of the enzyme solution was added to the peptides and substrate to initiate the reaction. […] The final volume was 240 μL containing: 5% DMSO, 1-100 μM of peptide, 200 μM substrate, and 0.75 μg (˜25 picomol) enzyme.
(viii) Calculations: For hLE, V is determined by fitting a linear equation to the first 6 time-points (10 min) of the kinetics data using the least squares method. […] Several inhibitor concentration in duplicates and two control wells were used to fit a linear equation to graphs of Vo/Vi−1 vs. [I] for each inhibitor using the least squares method (8 data points for each inhibitor). From calculating the error in the slope of the equation, the relative error for Ki was deduced:
Ki={slope*(1+[S]/Km)}^−1because Ki=[I]*{(1+[S]/Km)*(Vo/Vi−1)}^−1.
(§3) The hLE inhibitory capability of CRP-derived peptides was evaluated by inhibiting the enzymatic cleavage of MeOSuc-AAPV-NA as described in Materials and Methods (section v).

human leukocyte elastase [3] = molecular target: T3, human leukocyte elastase (human, UniProt P08246 30-267); test: hLE enzyme inhibition kinetics, cleavage of MeOSuc-AAPV-NA
T3 construct: mature; Active enzyme purified from human neutrophils; also called hLE
T3 sequence (looked up): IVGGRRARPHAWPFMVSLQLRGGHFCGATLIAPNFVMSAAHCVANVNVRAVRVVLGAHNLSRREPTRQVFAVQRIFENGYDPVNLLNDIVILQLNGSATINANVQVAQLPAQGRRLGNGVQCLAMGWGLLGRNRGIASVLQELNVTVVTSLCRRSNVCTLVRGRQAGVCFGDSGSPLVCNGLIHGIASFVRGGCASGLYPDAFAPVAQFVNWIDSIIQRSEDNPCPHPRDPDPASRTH
Procedure: (§4) (v) Inhibition experiments with hLE: Peptides were dissolved in 100 mM Hepes buffer pH 7.4 containing 0.1% Brij-35 with 10%. DMSO to yield 300 µM solutions, which were used to make further dilutions with the same buffer, and 80 µL aliquots were added in duplicates to 96-well plates. The substrate, 600 µM MeOSuc-AAPV-NA in the same buffer with 5% DMSO, was added to each well in addition to the blank wells, and the plate was placed in the plate reader equilibrated to 37 C (Dynateck MR-6000). Lyophilized aliquots of hLE were dissolved in 1600 µL of 100 mM Hepes buffer without DMSO, and 80 µL of the enzyme solution was added to the peptides and substrate to initiate the reaction. The kinetics program read the plate at 405 nm every 2 min for 20 min (with a 3 sec shaking period between readings), and plotted the results as well as the average of each duplicate. The final volume was 240 µL containing: 5% DMSO, 1–100 µM of peptide, 200 µM substrate, and 0.75 µg (~25 picomol) enzyme.
as §3

[4] = molecular target: T4, human leukocyte cathepsin G (human, UniProt P08311 21-244); test: hCG enzyme inhibition kinetics, cleavage of Suc-AAPF-NA
T4 construct: mature; Active enzyme purified from human neutrophils; also called hCG; human Cathepsin G
T4 sequence (looked up): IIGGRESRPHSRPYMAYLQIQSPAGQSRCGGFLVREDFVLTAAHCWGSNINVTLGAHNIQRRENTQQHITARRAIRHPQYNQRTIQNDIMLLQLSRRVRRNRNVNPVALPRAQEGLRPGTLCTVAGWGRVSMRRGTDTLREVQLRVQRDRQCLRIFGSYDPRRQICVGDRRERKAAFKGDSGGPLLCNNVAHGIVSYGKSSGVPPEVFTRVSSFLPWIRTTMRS
Procedure: as §4
as §2, with “µL” for “μL”, “1–100 µM” for “1-100 μM”, “µM” for “μM”, “µg” for “μg”

human leukocyte elastase [5] = molecular target: T3, human leukocyte elastase; test: hLE enzyme inhibition kinetics, cleavage of MeOSuc-AAPV-NA; remark: listed apart in the source
Procedure: as §4, §3

Molecule | Ki [1] | hLE inhibitory activity (in words) [2] | Ki [2] | Ki (human leukocyte elastase [3]) | further results
CC[C@H](C)[C@H](NC(=O)[C@H](CC(=O)O)NC(=O)[C@H](CCCCN)NC(=O)[C@H](CO)NC(=O)[C@H](Cc1c[nH]c2ccccc12)NC(=O)[C@H](Cc1ccccc1)NC(=O)[C@@H](NC(=O)[C@H](CC(C)C)NC(=O)[C@@H](NC(=O)[C@H](CCC(=O)O)NC(=O)[C@H](CC(N)=O)NC(=O)[C@H](CC(=O)O)NC(=O)[C@H](CCC(N)=O)NC(=O)[C@H](CCCNC(=N)N)NC(=O)[C@H](CCCCN)NC(=O)[C@@H](NC(=O)[C@H](C)N)[C@@H](C)O)[C@@H](C)CC)[C@@H](C)CC)C(=O)NCC(=O)N[C@@H](Cc1ccc(O)cc1)C(=O)N[C@@H](CO)C(=O)N[C@@H](Cc1ccccc1)C(=O)N[C@H](C(=O)N[C@H](C(=O)NCC(=O)NCC(=O)N[C@@H](CO)C(=O)N[C@@H](CCC(=O)O)C(=O)N[C@H](C(=O)N[C@@H](CC(C)C)C(=O)O)[C@@H](C)CC)C(C)C)[C@@H](C)O [Peptide 17] (H-ATKRQDNEILIFWSKDIGYSFTVGGSEIL-OH; N-terminus and C-terminus assumed) | 5.5 ± 1 µM | reduced inhibitory activity; also recorded: reduction of inhibitory activity |  |  | hCG inhibitory activity (in words) [1]: reduction of inhibitory activity
CC[C@H](C)[C@H](NC(=O)[C@H](CC(=O)O)NC(=O)[C@H](CCCN)NC(=O)[C@H](CO)NC(=O)[C@H](Cc1c[nH]c2ccccc12)NC(=O)[C@H](Cc1ccccc1)NC(=O)[C@@H](NC(=O)[C@H](CC(C)C)NC(=O)[C@@H](NC(=O)[C@@H](N)CCC(=O)O)[C@@H](C)CC)[C@@H](C)CC)C(=O)NCC(=O)N[C@@H](Cc1ccc(O)cc1)C(=O)N[C@@H](CO)C(=O)N[C@@H](Cc1ccccc1)C(=O)N[C@H](C(=O)O)[C@@H](C)O [Peptide 20, Glu-Ile-Leu-Ile-Phe-Trp-Ser-Orn-Asp-Ile-Gly-Tyr-Ser-Phe-Thr] (HELM PEPTIDE1{E.I.L.I.F.W.S.[Orn].D.I.G.Y.S.F.T}$$$$V2.0; N-terminus and C-terminus assumed) | 0.25 ± 0.05 µM | retained the same level of inhibitory activity as peptide 6 | 0.25 ± 0.1 µM |  | 
CC[C@H](C)[C@H](NC(=O)[C@H](CC(=O)O)NC(=O)[C@H](CCN)NC(=O)[C@H](CO)NC(=O)[C@H](Cc1c[nH]c2ccccc12)NC(=O)[C@H](Cc1ccccc1)NC(=O)[C@@H](NC(=O)[C@H](CC(C)C)NC(=O)[C@@H](NC(=O)[C@@H](N)CCC(=O)O)[C@@H](C)CC)[C@@H](C)CC)C(=O)NCC(=O)N[C@@H](Cc1ccc(O)cc1)C(=O)N[C@@H](CO)C(=O)N[C@@H](Cc1ccccc1)C(=O)N[C@H](C(=O)O)[C@@H](C)O [Peptide 21, Glu-Ile-Leu-Ile-Phe-Trp-Ser-DAB-Asp-Ile-Gly-Tyr-Ser-Phe-Thr] (HELM PEPTIDE1{E.I.L.I.F.W.S.[Dab].D.I.G.Y.S.F.T}$$$$V2.0; N-terminus and C-terminus assumed) | 0.85 ± 0.35 µM | retained the same level of inhibitory activity as peptide 6 | 0.2 ± 0.05 µM |  | 
CC[C@H](C)[C@H](NC(=O)[C@H](C)NC(=O)[C@H](CCCCN)NC(=O)[C@H](CO)NC(=O)[C@H](Cc1c[nH]c2ccccc12)NC(=O)[C@H](Cc1ccccc1)NC(=O)[C@@H](NC(=O)[C@H](CC(C)C)NC(=O)[C@@H](NC(=O)[C@@H](N)CCC(=O)O)[C@@H](C)CC)[C@@H](C)CC)C(=O)NCC(=O)N[C@@H](Cc1ccc(O)cc1)C(=O)N[C@@H](CO)C(=O)N[C@@H](Cc1ccccc1)C(=O)N[C@H](C(=O)O)[C@@H](C)O [Peptide 22, Glu-Ile-Leu-Ile-Phe-Trp-Ser-Lys-Ala-Ile-Gly-Tyr-Ser-Phe-Thr] (H-EILIFWSKAIGYSFT-OH; N-terminus and C-terminus assumed) | 5.5 ± 1.5 µM | large decrease in inhibition capacity | 3 ± 0.6 µM |  | 
CC[C@H](C)[C@H](NC(=O)[C@H](CCC(=O)O)NC(=O)[C@H](CCCCN)NC(=O)[C@H](CO)NC(=O)[C@H](Cc1c[nH]c2ccccc12)NC(=O)[C@H](Cc1ccccc1)NC(=O)[C@@H](NC(=O)[C@H](CC(C)C)NC(=O)[C@@H](NC(=O)[C@@H](N)CCC(=O)O)[C@@H](C)CC)[C@@H](C)CC)C(=O)NCC(=O)N[C@@H](Cc1ccc(O)cc1)C(=O)N[C@@H](CO)C(=O)N[C@@H](Cc1ccccc1)C(=O)N[C@H](C(=O)O)[C@@H](C)O [Peptide 23, Glu-Ile-Leu-Ile-Phe-Trp-Ser-Lys-Glu-Ile-Gly-Tyr-Ser-Phe-Thr] (H-EILIFWSKEIGYSFT-OH; N-terminus and C-terminus assumed) | 0.85 ± 0.25 µM | small decrease in inhibitory activity |  |  | 
B1 |  |  |  | 2000 nM | 
B2 |  |  |  | 7300 nM | 
B3 |  |  |  |  | Ki [4]: 30000 nM
B4 |  |  |  | 550 nM | 
B5 |  |  |  | 10000 nM | fold less active against peptide 6 (human leukocyte elastase [5]): 30 fold
